Results published in the NIST ThermoML archive (doi:10.1016/j.jct.2009.11.014).

Settings: Liquid; for mass density: vibrating tube; for viscosity: Stony Brook Scientific falling needle HPHTV-100 viscometer

CCCCCCn1cc[n+](C)c1.F[B-](F)(F)F [1-hexyl-3-methylimidazolium tetrafluoroborate]
Settings | mass density [kg/m3] | viscosity [mPa·s]
283.15 K, 100 kPa | 1155.97 | –
283.15 K, 2000 kPa | 1156.84 | –
283.15 K, 4000 kPa | 1157.76 | –
283.15 K, 6000 kPa | 1158.69 | –
283.15 K, 8000 kPa | 1159.61 | –
283.15 K, 10000 kPa | 1160.53 | –
283.15 K, 12000 kPa | 1161.43 | –
283.15 K, 14000 kPa | 1162.34 | –
283.15 K, 20000 kPa | 1165.02 | –
283.15 K, 30000 kPa | 1169.4 | –
283.15 K, 40000 kPa | 1173.6 | –
283.15 K, 50000 kPa | 1177.7 | –
283.15 K, 60000 kPa | 1181.65 | –
285.09 K, 4270 kPa | – | 449.6
285.15 K, 130 kPa | – | 420.5
285.15 K, 1400 kPa | – | 430.2
285.15 K, 3170 kPa | – | 437
285.15 K, 5380 kPa | – | 457.2
285.15 K, 12640 kPa | – | 495.6
285.2 K, 5080 kPa | – | 447.9
285.22 K, 12000 kPa | – | 488.4
285.23 K, 7090 kPa | – | 460.6
285.23 K, 10000 kPa | – | 481.6
285.23 K, 14220 kPa | – | 504.9
285.25 K, 8290 kPa | – | 468.5
288.15 K, 100 kPa | 1152.44 | –
288.15 K, 2000 kPa | 1153.37 | –
288.15 K, 4000 kPa | 1154.32 | –
288.15 K, 6000 kPa | 1155.11 | –
288.15 K, 8000 kPa | 1156.19 | –
288.15 K, 10000 kPa | 1157.11 | –
288.15 K, 12000 kPa | 1158.05 | –
288.15 K, 14000 kPa | 1158.97 | –
288.15 K, 20000 kPa | 1161.68 | –
288.15 K, 30000 kPa | 1166.05 | –
288.15 K, 40000 kPa | 1170.31 | –
288.15 K, 50000 kPa | 1174.45 | –
288.15 K, 60000 kPa | 1178.4 | –
293.15 K, 100 kPa | 1148.92 | –
293.15 K, 2000 kPa | 1149.88 | –
293.15 K, 4000 kPa | 1150.84 | –
293.15 K, 6000 kPa | 1151.81 | –
293.15 K, 8000 kPa | 1152.76 | –
293.15 K, 10000 kPa | 1153.7 | –
293.15 K, 12000 kPa | 1154.65 | –
293.15 K, 14000 kPa | 1155.57 | –
293.15 K, 20000 kPa | 1158.32 | –
293.15 K, 30000 kPa | 1162.74 | –
293.15 K, 40000 kPa | 1167.02 | –
293.15 K, 50000 kPa | 1171.16 | –
293.15 K, 60000 kPa | 1175.18 | –
294.65 K, 14670 kPa | – | 285.1
294.75 K, 8260 kPa | – | 261.3
294.75 K, 10200 kPa | – | 270.5
294.75 K, 12300 kPa | – | 278.6
294.77 K, 6430 kPa | – | 254.4
294.85 K, 140 kPa | – | 238.3
294.85 K, 760 kPa | – | 238.2
294.85 K, 2760 kPa | – | 242.5
294.85 K, 4280 kPa | – | 246.6
294.91 K, 1460 kPa | – | 238.3
298.15 K, 100 kPa | 1145.47 | –
298.15 K, 2000 kPa | 1146.39 | –
298.15 K, 4000 kPa | 1147.43 | –
298.15 K, 6000 kPa | 1148.36 | –
298.15 K, 8000 kPa | 1149.29 | –
298.15 K, 10000 kPa | 1150.27 | –
298.15 K, 12000 kPa | 1151.22 | –
298.15 K, 14000 kPa | 1152.19 | –
298.15 K, 20000 kPa | 1154.94 | –
298.15 K, 30000 kPa | 1159.42 | –
298.15 K, 40000 kPa | 1163.75 | –
298.15 K, 50000 kPa | 1167.96 | –
298.15 K, 60000 kPa | 1172.02 | –
300.25 K, 1630 kPa | – | 179.8
300.39 K, 2690 kPa | – | 180.5
300.42 K, 14380 kPa | – | 210.1
300.49 K, 4140 kPa | – | 184.2
300.61 K, 6190 kPa | – | 187
300.61 K, 12340 kPa | – | 202.5
300.62 K, 8490 kPa | – | 191.3
300.68 K, 10400 kPa | – | 196.1
300.75 K, 1410 kPa | – | 175.2
300.85 K, 120 kPa | – | 168.1
303.15 K, 100 kPa | 1141.99 | –
303.15 K, 2000 kPa | 1142.93 | –
303.15 K, 4000 kPa | 1143.92 | –
303.15 K, 6000 kPa | 1144.93 | –
303.15 K, 8000 kPa | 1145.93 | –
303.15 K, 10000 kPa | 1146.85 | –
303.15 K, 12000 kPa | 1147.82 | –
303.15 K, 14000 kPa | 1148.83 | –
303.15 K, 20000 kPa | 1151.57 | –
303.15 K, 30000 kPa | 1156.18 | –
303.15 K, 40000 kPa | 1160.55 | –
303.15 K, 50000 kPa | 1164.76 | –
303.15 K, 60000 kPa | 1168.87 | –
308.15 K, 100 kPa | 1138.53 | –
308.15 K, 2000 kPa | 1139.5 | –
308.15 K, 4000 kPa | 1140.49 | –
308.15 K, 6000 kPa | 1141.48 | –
308.15 K, 8000 kPa | 1142.48 | –
308.15 K, 10000 kPa | 1143.45 | –
308.15 K, 12000 kPa | 1144.45 | –
308.15 K, 14000 kPa | 1145.41 | –
308.15 K, 20000 kPa | 1148.24 | –
308.15 K, 30000 kPa | 1152.83 | –
308.15 K, 40000 kPa | 1157.26 | –
308.15 K, 50000 kPa | 1161.57 | –
308.15 K, 60000 kPa | 1165.72 | –
308.25 K, 1850 kPa | – | 114.6
308.35 K, 14230 kPa | – | 131.8
308.48 K, 12350 kPa | – | 128.7
308.55 K, 10300 kPa | – | 125.6
308.59 K, 8230 kPa | – | 122.7
308.65 K, 110 kPa | – | 112.3
308.65 K, 800 kPa | – | 113
308.65 K, 1730 kPa | – | 114.4
308.65 K, 2760 kPa | – | 115.1
308.65 K, 4300 kPa | – | 117.5
308.65 K, 6380 kPa | – | 120.2
313.15 K, 100 kPa | 1135.1 | –
313.15 K, 2000 kPa | 1136.08 | –
313.15 K, 4000 kPa | 1137.11 | –
313.15 K, 6000 kPa | 1138.14 | –
313.15 K, 8000 kPa | 1139.15 | –
313.15 K, 10000 kPa | 1140.14 | –
313.15 K, 12000 kPa | 1141.13 | –
313.15 K, 14000 kPa | 1142.09 | –
313.15 K, 20000 kPa | 1144.98 | –
313.15 K, 30000 kPa | 1149.62 | –
313.15 K, 40000 kPa | 1154.1 | –
313.15 K, 50000 kPa | 1158.44 | –
313.15 K, 60000 kPa | 1162.62 | –
318.15 K, 100 kPa | 1131.72 | –
318.15 K, 2000 kPa | 1132.7 | –
318.15 K, 4000 kPa | 1133.74 | –
318.15 K, 6000 kPa | 1134.77 | –
318.15 K, 8000 kPa | 1135.78 | –
318.15 K, 10000 kPa | 1136.79 | –
318.15 K, 12000 kPa | 1137.78 | –
318.15 K, 14000 kPa | 1138.79 | –
318.15 K, 20000 kPa | 1141.71 | –
318.15 K, 30000 kPa | 1146.4 | –
318.15 K, 40000 kPa | 1150.92 | –
318.15 K, 50000 kPa | 1155.3 | –
318.15 K, 60000 kPa | 1159.5 | –
319.85 K, 2700 kPa | – | 70.1
319.89 K, 110 kPa | – | 67.7
319.95 K, 700 kPa | – | 68.1
319.95 K, 4470 kPa | – | 70.7
319.95 K, 6480 kPa | – | 72.9
319.95 K, 14430 kPa | – | 77.8
319.98 K, 3850 kPa | – | 70.5
319.98 K, 12490 kPa | – | 76.1
319.99 K, 8440 kPa | – | 73.7
320.03 K, 1300 kPa | – | 68.2
320.05 K, 2440 kPa | – | 69.2
320.05 K, 10500 kPa | – | 74.9
323.15 K, 100 kPa | 1128.3 | –
323.15 K, 2000 kPa | 1129.31 | –
323.15 K, 4000 kPa | 1130.36 | –
323.15 K, 6000 kPa | 1131.4 | –
323.15 K, 8000 kPa | 1132.43 | –
323.15 K, 10000 kPa | 1133.45 | –
323.15 K, 12000 kPa | 1134.46 | –
323.15 K, 14000 kPa | 1135.46 | –
323.15 K, 20000 kPa | 1138.4 | –
323.15 K, 30000 kPa | 1143.16 | –
323.15 K, 40000 kPa | 1147.2 | –
323.15 K, 50000 kPa | 1152.14 | –
323.15 K, 60000 kPa | 1156.42 | –
